Columns and labels:
Assay in all cases: Kinase panel (140 human kinases)
Type in all cases: biochemical
[1] = target: MST4 (Homo sapiens, UniProt Q9P289)
Procedure: (§1) BAY-3827 and BAY-974 were assayed against a 140-human kinase panel at 0.1 μM and at 1 μM (BAY-3827) concentration in a [γ-^33P] ATP–based radioactive filter binding assay ([31], [65]) setup in duplicates with reported mean remaining kinase percentage activity alongside SD (table S1). Assays were performed at either 5, 20, or 50 μM ATP to be at or below the Michaelis constant for ATP for each enzyme and conducted by the services offered by the International Centre for Kinase Profiling at MRC Protein Phosphorylation and Ubiquitylation Unit, University of Dundee (https://www.kinase-screen.mrc.ac.uk/services/premier-screen).

[2] = target: HIPK3 (Homo sapiens, UniProt Q9H422)
Procedure: as §1

[3] = target: T1, ULK1 (Homo sapiens, UniProt O75385)
T1 sequence (O75385 1-1050): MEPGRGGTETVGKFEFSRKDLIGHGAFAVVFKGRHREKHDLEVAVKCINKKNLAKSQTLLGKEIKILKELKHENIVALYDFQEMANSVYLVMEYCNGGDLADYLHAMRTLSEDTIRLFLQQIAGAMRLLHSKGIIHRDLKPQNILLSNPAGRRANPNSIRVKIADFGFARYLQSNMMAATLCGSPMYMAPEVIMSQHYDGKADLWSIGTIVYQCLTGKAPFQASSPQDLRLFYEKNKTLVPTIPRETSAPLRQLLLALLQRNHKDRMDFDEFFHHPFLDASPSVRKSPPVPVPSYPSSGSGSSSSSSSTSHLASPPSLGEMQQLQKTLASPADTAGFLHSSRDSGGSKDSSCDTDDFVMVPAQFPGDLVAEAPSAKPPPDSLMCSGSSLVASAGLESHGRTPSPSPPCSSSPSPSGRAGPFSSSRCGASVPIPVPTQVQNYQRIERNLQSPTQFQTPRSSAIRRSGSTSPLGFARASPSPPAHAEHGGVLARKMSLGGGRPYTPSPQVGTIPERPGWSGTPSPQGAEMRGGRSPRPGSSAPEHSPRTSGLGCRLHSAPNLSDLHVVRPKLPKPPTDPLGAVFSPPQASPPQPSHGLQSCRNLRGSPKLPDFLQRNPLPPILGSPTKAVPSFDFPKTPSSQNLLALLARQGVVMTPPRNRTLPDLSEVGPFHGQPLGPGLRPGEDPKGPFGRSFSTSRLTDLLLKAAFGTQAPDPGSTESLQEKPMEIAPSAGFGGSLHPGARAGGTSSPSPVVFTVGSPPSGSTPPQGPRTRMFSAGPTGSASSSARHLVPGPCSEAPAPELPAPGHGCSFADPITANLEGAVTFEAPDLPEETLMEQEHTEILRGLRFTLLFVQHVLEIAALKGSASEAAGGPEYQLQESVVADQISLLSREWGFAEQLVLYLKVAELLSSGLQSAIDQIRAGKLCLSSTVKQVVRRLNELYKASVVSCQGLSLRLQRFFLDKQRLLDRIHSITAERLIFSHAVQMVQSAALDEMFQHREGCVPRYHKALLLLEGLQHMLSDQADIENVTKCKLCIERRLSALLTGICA
Procedure: as §1

[4] = target: SGK1 (Homo sapiens, UniProt O00141)
Procedure: as §1

[5] = target: DDR2 (Homo sapiens, UniProt Q16832)
Procedure: as §1

[6] = target: MAP4K3 (Homo sapiens, UniProt Q8IVH8)
Procedure: as §1

[7] = target: DYRK3 (Homo sapiens, UniProt O43781)
Procedure: as §1

[8] = target: MARK2 (Homo sapiens, UniProt Q7KZI7)
Procedure: as §1

[9] = target: JNK1 (Homo sapiens, UniProt P45983)
Procedure: as §1

[10] = target: p38b MAPK (Homo sapiens, UniProt Q15759)
Procedure: as §1

[11] = target: TIE2 (Homo sapiens, UniProt Q02763)
Procedure: as §1

[12] = target: NEK6 (Homo sapiens, UniProt Q9HC98)
Procedure: as §1

[13] = target: CAMK1 (Homo sapiens, UniProt Q14012)
Procedure: as §1

[14] = target: DYRK2 (Homo sapiens, UniProt Q92630)
Procedure: as §1

[15] = target: IR (Homo sapiens, UniProt P06213)
Procedure: as §1

[16] = target: JNK2 (Homo sapiens, UniProt P45984)
Procedure: as §1

[17] = target: CLK2 (Homo sapiens, UniProt P49760)
Procedure: as §1

[18] = target: TESK1 (Homo sapiens, UniProt Q15569)
Procedure: as §1

[19] = target: TTBK2 (Homo sapiens, UniProt Q6IQ55)
Procedure: as §1

[20] = target: PKCa (Homo sapiens, UniProt P17252)
Procedure: as §1

Sequence of IR (P06213 28-1382): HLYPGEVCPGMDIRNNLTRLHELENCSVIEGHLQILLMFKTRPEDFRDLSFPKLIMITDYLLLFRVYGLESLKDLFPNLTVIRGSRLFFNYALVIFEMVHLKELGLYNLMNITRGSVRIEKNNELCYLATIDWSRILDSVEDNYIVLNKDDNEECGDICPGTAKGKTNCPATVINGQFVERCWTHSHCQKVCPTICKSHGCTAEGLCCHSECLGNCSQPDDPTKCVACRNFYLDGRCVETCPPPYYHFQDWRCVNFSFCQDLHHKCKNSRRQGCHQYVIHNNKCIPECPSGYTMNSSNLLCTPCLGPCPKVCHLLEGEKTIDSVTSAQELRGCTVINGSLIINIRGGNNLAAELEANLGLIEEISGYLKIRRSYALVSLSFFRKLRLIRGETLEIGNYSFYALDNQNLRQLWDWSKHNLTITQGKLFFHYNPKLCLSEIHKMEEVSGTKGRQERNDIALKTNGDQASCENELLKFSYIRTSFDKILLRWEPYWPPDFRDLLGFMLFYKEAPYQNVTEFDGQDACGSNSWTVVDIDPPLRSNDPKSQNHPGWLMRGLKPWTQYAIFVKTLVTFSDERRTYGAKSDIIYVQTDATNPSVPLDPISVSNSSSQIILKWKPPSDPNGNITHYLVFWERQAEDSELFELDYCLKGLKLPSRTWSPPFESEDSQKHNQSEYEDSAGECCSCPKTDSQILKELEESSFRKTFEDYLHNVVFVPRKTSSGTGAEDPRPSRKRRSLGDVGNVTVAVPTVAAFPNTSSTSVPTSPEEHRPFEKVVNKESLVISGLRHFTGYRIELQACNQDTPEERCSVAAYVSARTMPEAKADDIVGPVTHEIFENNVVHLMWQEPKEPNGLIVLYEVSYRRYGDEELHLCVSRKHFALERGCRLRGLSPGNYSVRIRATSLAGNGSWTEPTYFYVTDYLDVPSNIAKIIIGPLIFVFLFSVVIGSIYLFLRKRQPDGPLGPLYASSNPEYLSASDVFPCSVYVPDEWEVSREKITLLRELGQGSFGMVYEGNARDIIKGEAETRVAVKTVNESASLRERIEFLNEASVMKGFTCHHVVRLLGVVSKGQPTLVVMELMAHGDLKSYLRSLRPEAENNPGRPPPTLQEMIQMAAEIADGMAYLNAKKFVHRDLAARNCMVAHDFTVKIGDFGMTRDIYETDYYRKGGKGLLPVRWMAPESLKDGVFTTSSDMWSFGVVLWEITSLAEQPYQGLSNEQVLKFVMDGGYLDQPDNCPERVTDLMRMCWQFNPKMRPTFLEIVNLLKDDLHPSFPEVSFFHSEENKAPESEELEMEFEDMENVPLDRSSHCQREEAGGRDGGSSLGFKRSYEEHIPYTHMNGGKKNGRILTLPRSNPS
Sequence of TESK1 (Q15569 whole entry): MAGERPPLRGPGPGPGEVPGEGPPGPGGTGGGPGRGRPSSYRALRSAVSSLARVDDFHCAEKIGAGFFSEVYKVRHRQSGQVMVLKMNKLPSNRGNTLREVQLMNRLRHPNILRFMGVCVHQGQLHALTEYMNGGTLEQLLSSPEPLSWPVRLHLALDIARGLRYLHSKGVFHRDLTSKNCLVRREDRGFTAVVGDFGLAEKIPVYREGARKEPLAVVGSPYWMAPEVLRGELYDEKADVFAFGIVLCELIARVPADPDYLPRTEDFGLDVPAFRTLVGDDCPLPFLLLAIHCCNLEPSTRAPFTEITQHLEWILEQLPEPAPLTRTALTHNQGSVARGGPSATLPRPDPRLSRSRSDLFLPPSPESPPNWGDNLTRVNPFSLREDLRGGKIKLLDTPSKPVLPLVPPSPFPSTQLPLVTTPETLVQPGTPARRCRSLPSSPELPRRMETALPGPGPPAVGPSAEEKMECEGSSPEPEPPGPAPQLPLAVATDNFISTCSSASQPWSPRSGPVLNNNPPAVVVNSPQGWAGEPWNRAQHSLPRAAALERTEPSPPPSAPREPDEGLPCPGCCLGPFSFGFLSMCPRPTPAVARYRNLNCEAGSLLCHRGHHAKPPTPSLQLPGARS
Sequence of NEK6 (Q9HC98 whole entry): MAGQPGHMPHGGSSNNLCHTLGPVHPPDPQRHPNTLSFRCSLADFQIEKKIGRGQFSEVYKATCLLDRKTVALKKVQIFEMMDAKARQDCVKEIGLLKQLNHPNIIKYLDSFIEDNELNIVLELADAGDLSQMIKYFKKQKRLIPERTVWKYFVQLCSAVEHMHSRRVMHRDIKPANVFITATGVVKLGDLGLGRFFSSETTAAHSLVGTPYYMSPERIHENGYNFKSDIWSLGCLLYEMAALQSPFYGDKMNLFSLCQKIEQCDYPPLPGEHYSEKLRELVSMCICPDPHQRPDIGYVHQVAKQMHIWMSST
Sequence of CAMK1 (Q14012 whole entry): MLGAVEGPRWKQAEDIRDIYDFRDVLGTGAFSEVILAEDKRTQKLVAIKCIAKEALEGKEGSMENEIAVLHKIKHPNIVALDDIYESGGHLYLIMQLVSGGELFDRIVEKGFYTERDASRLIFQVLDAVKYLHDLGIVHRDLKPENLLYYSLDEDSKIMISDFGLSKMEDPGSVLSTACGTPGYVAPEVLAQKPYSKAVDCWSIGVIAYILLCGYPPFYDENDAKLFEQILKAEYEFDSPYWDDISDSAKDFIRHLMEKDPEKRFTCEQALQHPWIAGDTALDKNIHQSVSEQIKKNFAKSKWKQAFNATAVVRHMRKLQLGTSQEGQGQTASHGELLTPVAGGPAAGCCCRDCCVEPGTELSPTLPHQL
Sequence of JNK1 (P45983 whole entry): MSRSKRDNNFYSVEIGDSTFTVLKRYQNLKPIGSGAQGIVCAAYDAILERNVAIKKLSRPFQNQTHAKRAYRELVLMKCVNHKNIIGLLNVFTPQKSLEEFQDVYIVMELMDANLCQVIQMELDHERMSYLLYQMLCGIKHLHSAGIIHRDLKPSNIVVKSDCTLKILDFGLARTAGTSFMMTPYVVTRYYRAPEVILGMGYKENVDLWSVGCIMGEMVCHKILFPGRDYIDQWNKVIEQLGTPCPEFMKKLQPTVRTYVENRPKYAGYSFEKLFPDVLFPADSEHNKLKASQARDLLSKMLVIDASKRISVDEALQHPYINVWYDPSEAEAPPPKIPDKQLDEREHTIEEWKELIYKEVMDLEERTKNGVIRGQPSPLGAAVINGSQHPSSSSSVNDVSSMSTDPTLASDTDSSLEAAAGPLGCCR
Sequence of HIPK3 (Q9H422 whole entry): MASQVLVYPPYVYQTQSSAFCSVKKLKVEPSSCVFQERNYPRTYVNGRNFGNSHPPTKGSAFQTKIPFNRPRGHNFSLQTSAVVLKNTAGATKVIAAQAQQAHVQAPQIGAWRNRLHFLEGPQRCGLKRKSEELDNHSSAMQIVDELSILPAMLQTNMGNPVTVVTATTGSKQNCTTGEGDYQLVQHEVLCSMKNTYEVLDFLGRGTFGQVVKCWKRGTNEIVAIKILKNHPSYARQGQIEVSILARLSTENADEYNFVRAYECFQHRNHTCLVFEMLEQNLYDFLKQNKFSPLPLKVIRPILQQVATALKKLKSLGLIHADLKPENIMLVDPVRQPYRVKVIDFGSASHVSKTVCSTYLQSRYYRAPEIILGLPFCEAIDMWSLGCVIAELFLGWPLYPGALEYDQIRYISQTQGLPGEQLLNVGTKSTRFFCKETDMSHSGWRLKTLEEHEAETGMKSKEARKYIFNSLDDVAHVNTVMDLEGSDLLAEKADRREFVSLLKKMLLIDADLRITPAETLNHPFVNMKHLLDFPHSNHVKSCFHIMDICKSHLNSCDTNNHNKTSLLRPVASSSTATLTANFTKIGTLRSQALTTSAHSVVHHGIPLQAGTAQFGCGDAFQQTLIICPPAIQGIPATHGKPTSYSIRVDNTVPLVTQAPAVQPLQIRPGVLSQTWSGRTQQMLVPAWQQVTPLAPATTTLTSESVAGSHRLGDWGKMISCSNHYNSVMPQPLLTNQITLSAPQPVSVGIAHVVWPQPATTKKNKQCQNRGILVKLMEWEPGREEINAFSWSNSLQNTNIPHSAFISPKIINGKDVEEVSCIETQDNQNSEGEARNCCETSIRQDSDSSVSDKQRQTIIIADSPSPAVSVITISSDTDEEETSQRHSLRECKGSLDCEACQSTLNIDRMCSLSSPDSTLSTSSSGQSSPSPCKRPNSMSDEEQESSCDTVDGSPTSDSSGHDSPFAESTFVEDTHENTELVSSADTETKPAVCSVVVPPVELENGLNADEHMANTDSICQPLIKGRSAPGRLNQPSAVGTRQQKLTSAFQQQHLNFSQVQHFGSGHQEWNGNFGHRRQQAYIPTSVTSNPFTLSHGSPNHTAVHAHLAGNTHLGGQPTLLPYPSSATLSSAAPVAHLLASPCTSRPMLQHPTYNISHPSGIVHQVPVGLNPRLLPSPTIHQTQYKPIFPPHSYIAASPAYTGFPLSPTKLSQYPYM
Sequence of DYRK3 (O43781 whole entry): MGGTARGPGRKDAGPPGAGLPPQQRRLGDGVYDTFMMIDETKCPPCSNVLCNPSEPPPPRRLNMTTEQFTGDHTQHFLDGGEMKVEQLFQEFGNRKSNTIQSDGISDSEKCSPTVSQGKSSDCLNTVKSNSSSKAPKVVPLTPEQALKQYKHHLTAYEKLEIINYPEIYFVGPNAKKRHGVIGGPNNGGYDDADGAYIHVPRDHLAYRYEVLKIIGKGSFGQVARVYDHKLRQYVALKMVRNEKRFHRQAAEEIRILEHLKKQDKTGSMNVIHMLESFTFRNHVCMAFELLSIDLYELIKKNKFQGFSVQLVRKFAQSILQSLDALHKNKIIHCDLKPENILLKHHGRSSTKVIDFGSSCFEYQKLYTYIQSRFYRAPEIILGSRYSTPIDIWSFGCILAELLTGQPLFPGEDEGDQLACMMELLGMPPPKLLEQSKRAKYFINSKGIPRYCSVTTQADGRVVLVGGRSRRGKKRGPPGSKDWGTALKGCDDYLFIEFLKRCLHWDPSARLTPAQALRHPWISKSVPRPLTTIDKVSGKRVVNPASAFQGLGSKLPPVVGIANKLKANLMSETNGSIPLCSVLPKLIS

CC1=C(C#N)C(c2ccc3c(c2)c(NC(=O)c2ccccc2C)nn3C)C(C#N)=C(C)N1 [BAY-974, N-[5-(3,5-dicyano-2,6-dimethyl-1,4-dihydropyridin-4-yl)-1-methylindazol-3-yl]-2-methylbenzamide]
remaining activity at 0.1 µM [1]: 98%
remaining activity at 0.1 µM [2]: 99%
inhibition at 0.1 µM [3]: 55 to 90%
remaining activity at 0.1 µM [3]: ≤ 50%
remaining activity at 0.1 µM [4]: 127%
remaining activity at 0.1 µM [5]: 89%
remaining activity at 0.1 µM [6]: 73%
remaining activity at 0.1 µM [7]: 83%
remaining activity at 0.1 µM [8]: 87%
remaining activity at 0.1 µM [9]: 106%
remaining activity at 0.1 µM [10]: 81%
remaining activity at 0.1 µM [11]: 103%
remaining activity at 0.1 µM [12]: 85%
remaining activity at 0.1 µM [13]: 78%
remaining activity at 0.1 µM [14]: 79%
remaining activity at 0.1 µM [15]: 81%
remaining activity at 0.1 µM [16]: 104%
remaining activity at 0.1 µM [17]: 93%
remaining activity at 0.1 µM [18]: 88%
remaining activity at 0.1 µM [19]: 91%
remaining activity at 0.1 µM [20]: 110%

CCc1ccccc1C(=O)Nc1n[nH]c2c(C)c(F)c(C3C(C#N)=C(C)N(C)C(C)=C3C#N)cc12 [BAY-3827, N-[5-(3,5-dicyano-1,2,6-trimethyl-4H-pyridin-4-yl)-6-fluoro-7-methyl-1H-indazol-3-yl]-2-ethylbenzamide]
remaining activity at 0.1 µM [1]: 64%
remaining activity at 0.1 µM [2]: 77%
remaining activity at 0.1 µM [3]: 88%
remaining activity at 0.1 µM [4]: 97%
remaining activity at 0.1 µM [5]: 80%
remaining activity at 0.1 µM [6]: 82%
remaining activity at 0.1 µM [7]: 97%
remaining activity at 0.1 µM [8]: 77%
remaining activity at 0.1 µM [9]: 94%
remaining activity at 0.1 µM [10]: 55%
remaining activity at 0.1 µM [11]: 69%
remaining activity at 0.1 µM [12]: 102%
remaining activity at 0.1 µM [13]: 80%
remaining activity at 0.1 µM [14]: 89%
remaining activity at 0.1 µM [15]: 102%
remaining activity at 1 µM ([15]; 1 μM, INSR, cross-referenced with screen data of ref 37, read-out: activity remaining after treatment): ≥ 99%
remaining activity at 0.1 µM [16]: 105%
remaining activity at 0.1 µM [17]: 87%
remaining activity at 0.1 µM [18]: 70%
remaining activity at 0.1 µM [19]: 93%
remaining activity at 0.1 µM [20]: 90%
